Results on ten compounds are retold here after ChEMBL document CHEMBL1806424, “The novel 3,4-dihydropyrimidin-2(1H)-one urea derivatives of N-aryl urea: synthesis, anti-inflammatory, antibacterial and antifungal activity evaluation” (2011).

In brackets after ≈: the same amount, converted by molar mass. Activity calls are given as the source filed them. The rule behind the calls is not given here.

Experiment [1] concerns Salmonella typhimurium. The experiment in a line: Antibacterial activity against Salmonella Typhimurium at 200 ug/ml. It counts as functional, organism-based. The conditions noted are these: Salmonella enterica subsp. enterica serovar Typhimurium.
In experiment [2] the test system is Candida albicans. The experiment in a line: Antifungal activity against Candida albicans. It counts as functional.
Experiment [3] relates to THP-1. The experiment in a line: Antiinflammatory activity in human THP1 cells assessed as inhibition of LPS-induced IL6 production at 10 uM treated 30 mins before LPS challenge measured after 24 hrs by ELISA. It counts as functional.
For experiment [4], the system named is Aspergillus niger. Nature of the experiment: Antifungal activity against Aspergillus niger at 200 ug/ml. It counts as functional, organism-based.
The subject of experiment [5] is Aspergillus flavus. Nature of the experiment: Antifungal activity against Aspergillus flavus at 200 ug/ml. It counts as functional, organism-based.
Experiment [6] relates to Bacillus subtilis. Nature of the experiment: Antibacterial activity against Bacillus subtilis. It counts as functional.
The test system of experiment [7] is Escherichia coli. Nature of the experiment: Antibacterial activity against Escherichia coli at 200 ug/ml. It counts as functional, organism-based.
For experiment [8], the system named is THP-1. Nature of the experiment: Antiinflammatory activity in human THP1 cells assessed as inhibition of LPS-induced TNFalpha production at 10 uM treated 30 mins before LPS challenge measured after 24 hrs by ELISA. It counts as functional.
In experiment [9] the test system is Fusarium solani. The experiment in a line: Antifungal activity against Fusarium solani at 200 ug/ml. It counts as functional, organism-based.
Experiment [10] has as its system Staphylococcus aureus. The experiment in a line: Antibacterial activity against Staphylococcus aureus. It counts as functional.
In experiment [11] the test system is Bacillus subtilis. Nature of the experiment: Antibacterial activity against Bacillus subtilis at 200 ug/ml. It counts as functional, organism-based.
In experiment [12] the test system is Candida albicans. The experiment in a line: Antifungal activity against Candida albicans at 200 ug/ml. It counts as functional, organism-based.
Experiment [13] concerns Escherichia coli. Nature of the experiment: Antibacterial activity against Escherichia coli. It counts as functional.
The subject of experiment [14] is Staphylococcus aureus. The experiment in a line: Antibacterial activity against Staphylococcus aureus at 200 ug/ml. It counts as functional, organism-based.
The test system of experiment [15] is Bacillus subtilis. The experiment in a line: Ratio of ciprofloxacin MIC to compound MIC for Bacillus subtilis. It counts as functional.
Experiment [16] deals with Escherichia coli. The experiment in a line: Ratio of ciprofloxacin MIC to compound MIC for Escherichia coli. It counts as functional.
For experiment [17], the system named is Salmonella typhimurium. The experiment in a line: Ratio of ciprofloxacin MIC to compound MIC for Salmonella Typhimurium. It counts as functional, Salmonella enterica subsp. enterica serovar Typhimurium.
Experiment [18] has as its system Staphylococcus aureus. Nature of the experiment: Ratio of ciprofloxacin MIC to compound MIC for Staphylococcus aureus. It counts as functional.
Experiment [19] relates to Fusarium solani. The experiment in a line: Antifungal activity against Fusarium solani. It counts as functional.
Experiment [20] has as its system Fusarium solani. The experiment in a line: Ratio of miconazole MIC to compound MIC for Fusarium solani. It counts as functional.
Experiment [21] deals with Salmonella typhimurium. The experiment in a line: Antibacterial activity against Salmonella Typhimurium. It counts as functional, Salmonella enterica subsp. enterica serovar Typhimurium. To be noted: Salmonella enterica.
For experiment [22], the system named is Candida albicans. The experiment in a line: Ratio of miconazole MIC to compound MIC for Candida albicans. It counts as functional.
In experiment [23] the test system is Aspergillus niger. Nature of the experiment: Ratio of miconazole MIC to compound MIC for Aspergillus niger. It counts as functional.
Experiment [24] has as its system Aspergillus flavus. The experiment in a line: Antifungal activity against Aspergillus flavus. It counts as functional.
The subject of experiment [25] is Aspergillus flavus. Nature of the experiment: Ratio of miconazole MIC to compound MIC for Aspergillus flavus. It counts as functional.
Experiment [26] relates to Aspergillus niger. The experiment in a line: Antifungal activity against Aspergillus niger. It counts as functional.
In experiment [27] the test system is THP-1. The experiment in a line: Antiinflammatory activity in human THP1 cells assessed as inhibition of LPS-induced TNFalpha production at 1 uM treated 30 mins before LPS challenge measured after 24 hrs by ELISA. It counts as functional.
Experiment [28] deals with THP-1. Nature of the experiment: Antiinflammatory activity in human THP1 cells assessed as inhibition of LPS-induced IL6 production at 1 uM treated 30 mins before LPS challenge measured after 24 hrs by ELISA. It counts as functional.

For `CCOC(=O)C1=C(C)NC(=S)NC1c1ccc(NC(=O)Nc2ccc(C)c(C)c2)cc1` (stereo not drawn), the result in the experiment with Salmonella typhimurium [1], in the experiment on Aspergillus niger [4], in the experiment with Aspergillus flavus [5], in the experiment with Escherichia coli [7] and in the experiment on Fusarium solani [9] was inactive. The values for the minimum inhibitory concentration (MIC) against Candida albicans [2], against Bacillus subtilis [6] and against Staphylococcus aureus [10] were 95 µg/mL (≈ 217 µM), 95 µg/mL (≈ 217 µM) and 90 µg/mL (≈ 205 µM), respectively. Moreover, the inhibition at 10 µM was found to be 2% in the experiment on THP-1 [3] and 0% with THP-1 [8].
For the compound `CCCCc1ccc(NC(=O)Nc2ccc(C3NC(=S)NC(C)=C3C(=O)OCC)cc2)cc1` (stereo not drawn), the outcome in the experiment with Bacillus subtilis [11], in the experiment with Salmonella typhimurium [1], with Aspergillus niger [4], in the experiment on Candida albicans [12], in the experiment with Aspergillus flavus [5] and in the experiment with Staphylococcus aureus [14] was inactive. Further, the outcome in the experiment with Fusarium solani [9] was inactive. Moreover, the inhibition at 10 µM with THP-1 [3] was found to be 10%; with THP-1 [8], 0%. In the experiment with Escherichia coli [13], this compound had an MIC of 95 µg/mL (≈ 204 µM).
For the compound `CCOC(=O)C1=C(C)NC(=S)NC1c1ccc(NC(=O)Nc2cc(F)cc(F)c2)cc1` (stereo not drawn), the result in the experiment on Bacillus subtilis [11], in the experiment on Salmonella typhimurium [1], in the experiment on Aspergillus niger [4], in the experiment with Aspergillus flavus [5], in the experiment with Escherichia coli [7] and in the experiment on Fusarium solani [9] was inactive. Besides, the MIC amounted to 95 µg/mL (≈ 213 µM) against Candida albicans [2] and 90 µg/mL (≈ 202 µM) against Staphylococcus aureus [10]. Also, the inhibition at 10 µM in the experiment with THP-1 [3] was determined as 86%; in the experiment on THP-1 [8], 62%.
Take `CCOC(=O)C1=C(C)NC(=S)NC1c1ccc(NC(=O)Nc2ccccc2Cl)cc1` (stereo not drawn): the Ratio turned out to be 1.5 in the experiment with Bacillus subtilis [15]; 1.5 with Escherichia coli [16]; 1.5 with Salmonella typhimurium [17]; 1.5 in the experiment with Staphylococcus aureus [18]; 2.5 in the experiment on Fusarium solani [20]; 2.5 with Candida albicans [22]. The Ratio in the experiment with Aspergillus niger [23] and in the experiment on Aspergillus flavus [25] was 2.5 in each case. Besides, the MIC stood at 10 µg/mL (≈ 22.5 µM) with Candida albicans [2]; 15 µg/mL (≈ 33.7 µM) against Fusarium solani [19]; 40 µg/mL (≈ 89.9 µM) in the experiment with Salmonella typhimurium [21]; 20 µg/mL (≈ 44.9 µM) against Bacillus subtilis [6]; 10 µg/mL (≈ 22.5 µM) against Escherichia coli [13]; 30 µg/mL (≈ 67.4 µM) in the experiment with Aspergillus flavus [24]. Further, the minimal inhibitory concentration (MIC) was 15 µg/mL (≈ 33.7 µM) against Aspergillus niger [26] and 10 µg/mL (≈ 22.5 µM) in the experiment on Staphylococcus aureus [10]. Moreover, the figures for the inhibition at 10 µM in the experiment with THP-1 [3] and in the experiment with THP-1 [8] were 43% and 0%, respectively.
For `CCOC(=O)C1=C(C)NC(=S)NC1c1ccc(NC(=O)Nc2ccc(F)c(C)c2)cc1` (stereo not drawn), the minimal inhibitory concentration (MIC) against Candida albicans [2] came to 80 µg/mL (≈ 181 µM); in the experiment with Salmonella typhimurium [21], 90 µg/mL (≈ 203 µM); with Bacillus subtilis [6], 90 µg/mL (≈ 203 µM); in the experiment on Aspergillus flavus [24], 95 µg/mL (≈ 215 µM); in the experiment on Aspergillus niger [26], 95 µg/mL (≈ 215 µM); against Staphylococcus aureus [10], 65 µg/mL (≈ 147 µM). Also, the inhibition at 10 µM in the experiment on THP-1 [3] amounted to 16%; in the experiment with THP-1 [8] it was 0%. Moreover, the outcome in the experiment on Escherichia coli [7] and in the experiment with Fusarium solani [9] was inactive.
`CCOC(=O)C1=C(C)NC(=S)NC1c1ccc(NC(=O)Nc2ccccc2F)cc1` (stereo not drawn): the Ratio turned out to be 1.5 in the experiment on Bacillus subtilis [15]; 1.5 in the experiment on Escherichia coli [16]; 1.5 in the experiment on Salmonella typhimurium [17]; 1.5 with Staphylococcus aureus [18]; 2.5 with Fusarium solani [20]; 2.5 in the experiment with Candida albicans [22]. In addition, the Ratio with Aspergillus niger [23] and in the experiment on Aspergillus flavus [25] was 2.5 in each case. The minimal inhibitory concentration (MIC) with Candida albicans [2] is 10 µg/mL (≈ 23.3 µM); against Fusarium solani [19], 15 µg/mL (≈ 35 µM); in the experiment on Salmonella typhimurium [21], 40 µg/mL (≈ 93.4 µM); in the experiment with Bacillus subtilis [6] it was 15 µg/mL (≈ 35 µM); with Escherichia coli [13] it was 10 µg/mL (≈ 23.3 µM); against Aspergillus flavus [24], 10 µg/mL (≈ 23.3 µM). Moreover, the MIC in the experiment with Aspergillus niger [26] and with Staphylococcus aureus [10] was 10 µg/mL (≈ 23.3 µM) each time. The values for the inhibition at 10 µM with THP-1 [3] and with THP-1 [8] were 40% and 0%, respectively.
Turning to `CCOC(=O)C1=C(C)NC(=S)NC1c1ccc(NC(=O)Nc2ccc(F)c(Cl)c2)cc1` (stereo not drawn), the outcome with Bacillus subtilis [11], in the experiment with Salmonella typhimurium [1], in the experiment on Aspergillus niger [4] and in the experiment on Aspergillus flavus [5] was inactive. Moreover, the minimum inhibitory concentration (MIC) against Candida albicans [2] was determined as 80 µg/mL (≈ 173 µM); in the experiment with Fusarium solani [19], 95 µg/mL (≈ 205 µM); in the experiment with Escherichia coli [13] it was 85 µg/mL (≈ 184 µM); against Staphylococcus aureus [10], 60 µg/mL (≈ 130 µM). The inhibition at 10 µM was determined as 40% in the experiment on THP-1 [3] and 3% with THP-1 [8].
As for `CCOC(=O)C1=C(C)NC(=S)NC1c1ccc(NC(=O)Nc2c(Cl)cccc2C(F)(F)F)cc1` (stereo not drawn), the MIC came out at 60 µg/mL (≈ 117 µM) with Candida albicans [2]; 80 µg/mL (≈ 156 µM) against Fusarium solani [19]; 90 µg/mL (≈ 175 µM) in the experiment with Salmonella typhimurium [21]; 85 µg/mL (≈ 166 µM) in the experiment on Bacillus subtilis [6]; 60 µg/mL (≈ 117 µM) against Escherichia coli [13]; 55 µg/mL (≈ 107 µM) against Aspergillus flavus [24]. The MIC against Aspergillus niger [26] was determined as 65 µg/mL (≈ 127 µM); with Staphylococcus aureus [10], 40 µg/mL (≈ 78 µM). In addition, the inhibition at 10 µM in the experiment with THP-1 [3] worked out at 39%; in the experiment with THP-1 [8] it was 0%.
As to `CCOC(=O)C1=C(C)NC(=S)NC1c1ccc(NC(=O)Nc2c(C)cccc2F)cc1` (stereo not drawn), the MIC against Candida albicans [2] is 50 µg/mL (≈ 113 µM); against Fusarium solani [19], 40 µg/mL (≈ 90.4 µM); in the experiment with Salmonella typhimurium [21], 30 µg/mL (≈ 67.8 µM); in the experiment with Bacillus subtilis [6], 65 µg/mL (≈ 147 µM); in the experiment with Escherichia coli [13] it was 30 µg/mL (≈ 67.8 µM); with Aspergillus flavus [24], 40 µg/mL (≈ 90.4 µM). Also, the MIC came to 35 µg/mL (≈ 79.1 µM) with Aspergillus niger [26] and 60 µg/mL (≈ 136 µM) in the experiment on Staphylococcus aureus [10]. In addition, the inhibition at 10 µM in the experiment on THP-1 [3] was determined as 6%; in the experiment on THP-1 [8], 0%.
Consider `C[C@@H]1C[C@H]2[C@@H]3CCC4=CC(=O)C=C[C@]4(C)[C@@]3(F)[C@@H](O)C[C@]2(C)[C@@]1(O)C(=O)CO` [DEXAMETHASONE], for which the results for the inhibition at 1 µM in the experiment with THP-1 [27] and in the experiment with THP-1 [28] were 71% and 84%, respectively.
